{"source": "patent US4704277A", "about": "“Methods of treating bone disorders” (Sloan-Kettering Institute for Cancer Research, priority 1985, dated 1987)", "key": {"bone": {"test_system": "bone", "conditions": "cited from earlier work"}, "[1]": {"conditions": "patients treated in clinical testing; cited from earlier work"}, "bone resorption": {"test_system": "bone resorption", "assay": "Inhibition of bone resorption by gallium nitrate", "conditions": "direct effect", "procedure": "(§1) These additional experiments were performed to permit evaluation of bone turnover in patients with bone metastases, in response to short term infusion of gallium nitrate."}, "[2]": {"assay": "Body weight in gallium nitrate injected rats (lack of toxicity)", "assay_type": "in vivo, Sprague-Dawley rats", "conditions": "0.5 or 5.0 mg i.p. every other day, end of 14 day schedule", "procedure": "Young female (120 g) Sprague-Dawley rats received a course of injections with 0.5 or 5.0 mg gallium nitrate, every other day. The 0.5 mg concentration is approximately equivalent (on a weight/weight basis) to the dose used to treat patients with cancer-related hypercalcemia by Warrell, et. al., supra. The animals received 7 interperitoneal injections over a 9-14 day period. Control groups were injected with carrier only. […] To obtain bone samples the rats were anesthetized and then sacrificed. The long bones were removed and cleaned of all muscle and connective tissue. The metaphyseal (ends containing the growth plate) and diaphyseal (shaft) portions of the bones were separated using a dissecting microscope. The bone pieces were then split and cleaned of all visible marrow, frozen and lyophilized. The split, dried, marrow-free bone fragments were pulverized in a liquid nitrogen cooled colloid mill to produce bone powder. Aliquots of bone particles were used for: (a) ash weight determination, (b) measurement of Ga, Ca and P content and (c) X-ray diffraction analysis. A portion of one bone particle preparation was sieved to uniform size using an #325 stainless steel mesh. Approximately 50 mg of the sieved-particle bone was then dispersed in bromoform:toluene, density=2.0 g/cc (as measured with a pynconometer). […] Both the light and heavy density fractions were analyzed for Ga and Ca content."}, "bone tissue": {"test_system": "bone tissue", "assay": "Histological studies of bone tissue for cytotoxicity", "text": "(§2) Cytotoxicity studies were undertaken to determine if gallium nitrate was cytotoxic to bone tissue. […] At this dose and time, a 20% decrease in ^3 H-thymidine incorporation into DNA was seen."}, "bone turnover": {"test_system": "bone turnover", "assay": "Bone turnover in patients with bone metastases on short term gallium nitrate infusion", "assay_type": "in vivo, human (patients with bone metastases)", "procedure": "as §1\nSeventeen infusions were administered to fifteen patients, five of whom were hypercalcemic. Gallium nitrate was administered as a continuous infusion at daily doses ranging from […], over 5-7 days. Bone turnover was assessed by serial measurements of urinary levels of Ca^2+, hydroxyproline (OHP), and creatinine (Cr), as well as the serum levels of osteocalcin (BGP). […] Mean reduction was 70±18%. Eight patients with increased bone turnover (i.e., a urinary OHP/Cr ratio greater than 6.0), received eleven drug infusions. […] Mean reduction was 49±22%."}, "bone calcium": {"test_system": "bone calcium", "conditions": "humans; application Ser. No. 622,726; cited from earlier work"}, "[3]": {"test_system": "long bones (metaphyses and diaphyses)", "assay": "Bone Ga, Ca, P content and ash weight of bone fragments from gallium-treated rats", "assay_type": "in vivo, Sprague-Dawley rats", "conditions": "for bone calcium content vs nontreated: 7 injections of 5 mg over 14 days; for Ga content of bone: gallium treated rats, n=6, 20160 min", "procedure": "(§3) Young female (120 g) Sprague-Dawley rats received a course of injections with 0.5 or 5.0 mg gallium nitrate, every other day. The 0.5 mg concentration is approximately equivalent (on a weight/weight basis) to the dose used to treat patients with cancer-related hypercalcemia by Warrell, et. al., supra. The animals received 7 interperitoneal injections over a 9-14 day period. Control groups were injected with carrier only. […] To obtain bone samples the rats were anesthetized and then sacrificed. The long bones were removed and cleaned of all muscle and connective tissue. The metaphyseal (ends containing the growth plate) and diaphyseal (shaft) portions of the bones were separated using a dissecting microscope. The bone pieces were then split and cleaned of all visible marrow, frozen and lyophilized. The split, dried, marrow-free bone fragments were pulverized in a liquid nitrogen cooled colloid mill to produce bone powder. Aliquots of bone particles were used for: (a) ash weight determination, (b) measurement of Ga, Ca and P content and (c) X-ray diffraction analysis. A portion of one bone particle preparation was sieved to uniform size using an #325 stainless steel mesh. Approximately 50 mg of the sieved-particle bone was then dispersed in bromoform:toluene, density=2.0 g/cc (as measured with a pynconometer). The suspension was centrifuged in the cold at 100 x G for 15 minutes. The suspended particles, representing newly formed mineral bone, density <2.0 g/cc were removed, washed with acetone then dried. The pelleted particles, density >2.0 g/cc were similarly washed with acetone and dried. Both the light and heavy density fractions were analyzed for Ga and Ca content.\nGallium content in bone was measured by flameless atomic absorption spectrophotometry. Inorganic phosphorus was measured spectrophotometrically.\nIn subsequent experiments, rats were given 7 injections with 5 mg gallium nitrate over 14 days. […] As expected, increased calcium content was measured in the heavier density fraction >2.0 g/cc (220±31 vs 132±42 ug Ca/mg bone) which contained the more mineralized and more mature hydroxyapatite crystalline material."}, "bone hydroxyapatite": {"test_system": "bone hydroxyapatite", "assay": "Wide angle X-ray diffraction of powdered bone (hydroxyapatite crystal size/perfection, B002)", "assay_type": "in vivo, Sprague-Dawley rats", "conditions": "for BOO2 (002 line width at half maximum): gallium treated rats, n=11", "procedure": "as §3\nAliquots of the powdered bone were subjected to wide angle x-ray diffraction using Cu K(alpha) radiation. Samples were rapidly scanned from 4° 2.phi. to 70° 2.phi. to detect the presence of phases other than hydroxyapatite. Triplicate slow scans from 24° to 28° 2.phi. were used to estimate hydroxyapatite crystal size and perfection based on the line-width measurements (B002) made at the half maximum point of the c-axis 002 reflection at 25.8° 2.phi.. […] As a consequence, crystals formed in the metaphyses of the treated animals were similar to those found in the more mature diaphyses."}, "[4]": {"conditions": "continuous infusion; Warrell 1983, Leyland-Jones 1983; cited from earlier work"}, "bone cell models": {"test_system": "bone cell models", "assay": "Cytotoxicity in bone cell models", "assay_type": "cell-based", "text": "as §2"}, "total serum calcium": {"test_system": "total serum calcium", "assay": "Comparative effect of calcitonin and gallium nitrate on total serum calcium", "assay_type": "in vivo", "conditions": "one patient; calcitonin many times over recommended dose; FIG. 1", "procedure": "Comparative studies were performed as to the effect of Calcitonin on total serum calcium, compared to gallium nitrate in a patient with severe life-threatening hypercalcemia due to bone metastases."}}, "data": [{"molecule": "CC(O)(P(=O)(O)O)P(=O)(O)O", "note": "[EHDP]", "values": [{"measurement": "bone mineralization", "setting": "bone; Schenk et al. 1973", "result": "blocks normal bone mineralization and leads to formation of disordered and inadequately calcified bone (osteomalacia)"}]}, {"molecule": "O=P(O)(O)C(Cl)(Cl)P(=O)(O)O", "note": "[dichloromethylenediphosphonate]", "values": [{"measurement": "leukemia", "setting": "[1]", "result": "increased development of leukemia"}]}, {"molecule": "F", "note": "[fluoride]", "values": [{"measurement": "bone structure", "setting": "bone; Jowsey et al. 1968", "result": "highly abnormal (lamellar-type) bone structure which is less strong relative to normal bone"}]}, {"molecule": "O=[N+]([O-])[O-].O=[N+]([O-])[O-].O=[N+]([O-])[O-].[Ga+3]", "note": "[gallium nitrate]", "values": [{"measurement": "bone resorption", "setting": "bone resorption", "result": "directly inhibits bone resorption"}, {"measurement": "body weights or weight gained, treated vs nontreated", "setting": "[2]", "result": "no differences"}, {"measurement": "cytotoxic effect at light microscopic level", "setting": "bone tissue; histology", "result": "no evidence of cytotoxic effect"}, {"measurement": "matrix or mineral components", "setting": "bone tissue; stained sections", "result": "no alteration in matrix or mineral components"}, {"measurement": "urinary OHP/Cr ratio", "setting": "bone turnover; 6 patients with bone turnover not elevated", "result": "no significant change"}, {"measurement": "urinary OHP/Cr ratio", "setting": "bone turnover; 8 patients with increased bone turnover (OHP/Cr > 6.0)", "result": "All patients showed a decrease in OHP/Cr"}, {"measurement": "mean reduction of urinary OHP/Cr ratio", "setting": "bone turnover; 8 patients with increased bone turnover (OHP/Cr > 6.0), 11 infusions", "result": "49±22", "unit": "%"}, {"measurement": "urinary 24 hour Ca2+ excretion", "setting": "bone turnover; after each infusion in all 15 patients", "result": "markedly reduced after each infusion in all 15 patients"}, {"measurement": "accelerated bone loss", "setting": "bone turnover; cancer patients with bone metastases", "result": "reduces accelerated bone loss"}, {"measurement": "mean reduction of urinary 24 hour Ca2+ excretion", "setting": "bone turnover; continuous infusion 100-300 mg daily over 5-7 days, 15 patients", "result": "70±18", "unit": "%"}, {"measurement": "excessive loss of bone calcium", "setting": "bone calcium", "result": "effective in reducing excessive loss of bone calcium"}, {"measurement": "mineral content (ash weights), treated vs control", "setting": "[3]; 7 injections with 5 mg gallium nitrate over 14 days", "result": "not significantly different"}, {"measurement": "site of greatest gallium uptake", "setting": "[3]; bone fragments, different total doses", "result": "metaphyseal bone"}, {"measurement": "bone calcium content vs nontreated", "setting": "[3]; diaphyseal fragments", "result": "No differences in calcium content"}, {"measurement": "Ga content of bone", "setting": "[3]; diaphyses", "result": "149 ± 30", "unit": "ng/mg"}, {"measurement": "gallium incorporation into bone", "setting": "[3]; gallium:calcium ratio, different total doses", "result": "incorporated into bone in very low amounts"}, {"measurement": "Ca content of density fraction", "setting": "[3]; heavier density fraction >2.0 g/cc", "result": "220±31", "unit": "ug Ca/mg bone"}, {"measurement": "Ga content of density fraction", "setting": "[3]; heavier density fraction >2.0 g/cc (comparator of the 'vs.')", "result": "2.9±0.4", "unit": "ug Ga/mg Ca"}, {"measurement": "Ga content of density fraction", "setting": "[3]; lighter bone fraction, <2.0 g/cc (newly synthesized mineral)", "result": "3.2±0.2", "unit": "ug Ga/mg Ca"}, {"measurement": "Ca content of density fraction", "setting": "[3]; lighter fraction <2.0 g/cc (comparator of the 'vs')", "result": "132±42", "unit": "ug Ca/mg bone"}, {"measurement": "Ga content of bone", "setting": "[3]; metaphyses", "result": "384 ± 69", "unit": "ng/mg"}, {"measurement": "bone calcium content vs nontreated", "setting": "[3]; metaphyses", "result": "statistically significant increase in bone calcium content"}, {"measurement": "mineral phases detected", "setting": "bone hydroxyapatite; all samples, scan 4° to 70° 2.phi.", "result": "The only phase detected in all samples was hydroxyapatite"}, {"measurement": "BOO2 (002 line width at half maximum)", "setting": "bone hydroxyapatite; diaphyses", "result": "0.50 ± .03 degrees"}, {"measurement": "B002 vs control", "setting": "bone hydroxyapatite; metaphyseal particles", "result": "differed significantly"}, {"measurement": "BOO2 (002 line width at half maximum)", "setting": "bone hydroxyapatite; metaphyses", "result": "0.50 ± .03 degrees"}, {"measurement": "hydroxyapatite crystal size/perfection", "setting": "bone hydroxyapatite; metaphyses, region of more active bone mineralization", "result": "larger or more perfect crystals"}, {"measurement": "safety of administration", "setting": "[4]", "result": "safe and non-toxic"}, {"measurement": "protein banding patterns on SDS-PAGE, treated vs untreated", "setting": "bone cell models; 3H-amino acid labeled cell homogenates", "result": "no differences"}, {"measurement": "cell numbers or viability", "setting": "bone cell models; 48 hours, up to 25 uM", "result": "Little change in cell numbers or viability"}, {"measurement": "action as consequence of cytotoxic effect on bone cells", "setting": "bone cell models; conclusion", "result": "not a consequence of a cytotoxic effect on bone cells"}, {"measurement": "reduction of elevated serum calcium vs calcitonin", "setting": "total serum calcium", "result": "distinctly greater effect on reducing elevated serum calcium"}]}, {"molecule": "calcitonin", "values": [{"measurement": "rate of bone resorption", "setting": "bone; parenteral", "result": "transient decrease in the rate of bone resorption"}, {"measurement": "bone mineral content (densimetric)", "setting": "bone; repetitive injections, Gruber et al.", "result": "increase bone mineral content"}, {"measurement": "duration of anti-resorptive effect", "setting": "bone; tachyphylaxis", "result": "short-lived"}]}]}
